Reference: publication PMC5584760, “Rational design of drug-like compounds targeting Mycobacterium marinum MelF protein” (PLoS ONE, 2017)
In brackets after ≈: the same amount, converted by molar mass. Several values for one entry are separate records, joined by “and”; a condition that tells them apart may be missing. Identical values can stand only once. Like-named read-outs stand apart in the source and are kept apart here.

How the values were obtained:
purified MelF = purified MelF (Mycobacterium marinum, UniProt Q5SDQ6); experiment: Ki determination by Dixon plots; type: biochemical; details: for Ki: Dixon plots, substrate 50, 100 and 150 μM; for type of inhibition (Dixon's plot): intersection of Dixon's plots
Experimental: The enzyme activity was assayed by monitoring a decrease in absorption of NADH (nicotinamide adenine dinucleotide) at 340 nm (ε = 6.22 X 10^3 M^-1cm^-1) in 50 mM Tris-Cl, pH 7.4 at 25°C. The steady state kinetic measurements were performed in a 1-cm path length cuvette in a final volume of 1mL according to the method of Kendrew et al. with slight modifications. 300μM of NADH and 80μM of FAD (flavin adenine dinucleotide) were added and the assay was initiated with the addition of 100 μg (6.09× 10^−10 mole) of enzyme present in WCL/purified MelF. The reaction was followed at 25°C for 5 min. The FAD was kept in the dark to prevent photo-reduction. The specific activity of the enzyme was calculated as Units/mg = ΔA340/min/6.22×mg enzyme/ mL reaction mixture Where ΔA340 represents a change in absorbance of NADH at 340 nm.
Ki values were calculated using Dixon plots, where inverse of Vmax values were plotted against the inhibitor concentration using different substrate concentrations.

M. tuberculosis [1] = experiment: MIC by resazurin microtiter plate assay (REMA); type: cell-based, M. tuberculosis H37Rv; details: 96 h, ~5 X 10^6/well, median (range) of three independent experiments; for MIC: Mycobacterium tuberculosis
M. marinum [2] = experiment: MBC by CFU assay; type: cell-based, M. marinum strain M; details: for MBC, M. marinum / MBC: CFU assay, 48 h, median (range) of three independent experiments; for MBC/MIC, M. marinum: ratio, bactericidal when ≤ 4; for MBC: Mycobacterium marinum
M. tuberculosis [3] = experiment: MBC by CFU assay; type: cell-based, M. tuberculosis H37Rv; details: for MBC, M. tuberculosis / MBC: CFU assay, 96 h, median (range) of three independent experiments; for MBC/MIC, M. tuberculosis: ratio, bactericidal when ≤ 4; for MBC: Mycobacterium tuberculosis
M. marinum [4] = experiment: Resazurin drugs combination microtiter assay (RIF/INH + inhibitor); type: cell-based, M. marinum strain M; details: for FICI in combination with INH, M. marinum: synergistic inhibitory effect
HeLa cells = experiment: MTT cytotoxicity assay; type: cell-based, Human; details: 20 h
Experimental: The MTT (3-(4, 5-dimethyl thiazol-2yl)-2, 5-diphenyl tetrazolium bromide) assay was employed to assess the cytotoxicity of the inhibitors. HeLa cells (Human cervical epithelial cells) were plated at a concentration of 1×10^5/well in 100 μL of minimal essential medium (MEM) supplemented with 10% heat-inactivated fetal bovine serum (FBS) in 96-well plates. After overnight incubation at 37°C in 5% CO2 incubator, media was removed and the inhibitors were added in 100 μL of MEM + 10% heat-inactivated FBS at 1X and 5 X MIC concentrations. After incubation for 20 h, the cells were washed thrice with warm MEM (without FBS) and 200 μL of MTT (5mg/mL) was added. The plates were further incubated for 4 h, followed by the addition of 50 μL of DMSO (solubilizing reagent) per well, mixed thoroughly by a micropipette and left for 45 s. Presence of viable cells was visualized by the development of purple color due to formation of formazan crystals. The OD values were read at 595 nm using DMSO as a blank. A standard graph was plotted between the concentration of inhibitors and the relative cell viability.
Cell viability (%) = Test OD /Control ODX 100

M. marinum [5] = experiment: MIC by resazurin microtiter plate assay (REMA); type: cell-based, M. marinum strain M; details: 48 h, ~5 X 10^6/well, median (range) of three independent experiments; for MIC: Mycobacterium marinum
M. tuberculosis [6] = experiment: Resazurin drugs combination microtiter assay (RIF/INH + inhibitor); type: cell-based, M. tuberculosis H37Rv; details: for FICI in combination with INH, M. tuberculosis: synergistic inhibitory effect
M. tuberculosis [7] = experiment: MBC of combinations of drugs (RIF/INH) and inhibitors; type: cell-based, M. tuberculosis H37Rv; details: for bactericidal effect in combination with RIF against M. tuberculosis: compared with RIF alone
[8] = at both 1X and 5X MIC concentrations

purified MelF, sequence (Q5SDQ6 entry or part of it): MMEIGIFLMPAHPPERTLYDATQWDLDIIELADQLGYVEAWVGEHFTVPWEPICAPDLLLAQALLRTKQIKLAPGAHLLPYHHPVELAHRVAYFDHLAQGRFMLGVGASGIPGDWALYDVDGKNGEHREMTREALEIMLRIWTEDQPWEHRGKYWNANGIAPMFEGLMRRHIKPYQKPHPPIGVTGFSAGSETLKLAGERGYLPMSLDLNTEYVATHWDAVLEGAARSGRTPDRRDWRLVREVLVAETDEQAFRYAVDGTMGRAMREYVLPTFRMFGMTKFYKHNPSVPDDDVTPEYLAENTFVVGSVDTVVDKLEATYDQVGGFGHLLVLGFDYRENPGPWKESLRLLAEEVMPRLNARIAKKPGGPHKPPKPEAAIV

| Compound | Ki (purified MelF; read-out: Ki) | type of inhibition (Dixon's plot) (purified MelF) | MIC, M. tuberculosis (M. tuberculosis [1]) | MBC, M. marinum (M. marinum [2]) | MBC/MIC, M. marinum (M. marinum [2]) | MBC, M. tuberculosis (M. tuberculosis [3]) | MBC/MIC, M. tuberculosis (M. tuberculosis [3]) | cytotoxicity in HeLa cells (HeLa cells; [8]) | Ki (purified MelF; Ki) | MIC, M. marinum (M. marinum [5]) | MIC (M. marinum [5]) [µM] | MIC (M. tuberculosis [1]) [µM] | MBC (M. marinum [2]) [µM] | MBC (M. tuberculosis [3]) [µM] | FICI in combination with INH, M. tuberculosis (M. tuberculosis [6]) | other results |
| --- | --- | --- | --- | --- | --- | --- | --- | --- | --- | --- | --- | --- | --- | --- | --- | --- |
| 2-{[(2-methyl-6-phenyl-4-pyrimidinyl)thio]methyl}-1H-benzimidazole [compound 6513745] | 18 µM | noncompetitive inhibition | 32.68–38.77 μM and 38.77 (19.39–38.77) μM | 38.77 (19.39–38.77) μM | 2 | 38.77 (19.39–38.77) μM | 1 | not cytotoxic |  |  |  |  |  |  |  | combined effect with INH against M. marinum (M. marinum [4]; in combination with INH): synergistic inhibitory effect; FICI in combination with INH, M. marinum (M. marinum [4]): 0.276 |
| CC(C)COc1ccc(-c2nn(-c3ccccc3)cc2CO)cc1 [compound 5175552, [3-(4-isobutoxyphenyl)-1-phenyl-1H-pyrazol-4-yl]methanol] |  | competitive inhibition | 13.51 (13.51–27.02) μM | 6.76 (6.76) μM | 2 | 27.02 (13.51–27.02) μM | 2 | not cytotoxic | 68 µM | 3.38 (3.38) μM | 3.38 (≈ 1.09 µg/mL) | 13.5 (≈ 4.36 µg/mL) | 6.76 (≈ 2.18 µg/mL) | 27 (≈ 8.71 µg/mL) | 0.257–0.263 | combined effect with INH against M. tuberculosis (M. tuberculosis [6]; in combination with INH): synergistic inhibitory effect; MBC/MIC ratio in combination with RIF, M. tuberculosis (M. tuberculosis [7]): 1; bactericidal effect in combination with RIF against M. tuberculosis (M. tuberculosis [7]): enhanced bactericidal effect |
| c1ccc(CC(Cc2nc3ccccc3[nH]2)c2nc3ccccc3[nH]2)cc1 (centres unmarked) [compound 5255825, 2,2'-(3-phenyl-1,2-propanediyl)bis-1H-benzimidazole] |  | competitive inhibition | 35.47 (17.74–35.47) μM |  | 2 |  | 1 | cytotoxic | 4 µM | 17.74 (8.87–17.74) μM | 9.57 to 19.4 (≈ 3.37 to 6.83 µg/mL) | 32.7 to 38.8 (≈ 11.5 to 13.7 µg/mL) | 35.5 (≈ 12.5 µg/mL) | 35.5 (≈ 12.5 µg/mL) | 0.257–0.263 | FICI in combination with INH, M. marinum (M. marinum [4]): 0.276 |
| 2,2'-[3-(3-methoxyphenyl)-1,2-propanediyl]bis-1H-benzimidazole [compound 9125618] | 24 µM and 25 µM | noncompetitive inhibition | 32.68–38.77 μM and 37.61 (18.80–37.61) μM | 37.61 (37.61) μM | 2 | 37.61 (37.61) μM | 1 |  |  | 9.57–19.39 μM and 18.80 (9.40–18.80) μM |  |  |  |  |  | bactericidal effect in combination with RIF against M. tuberculosis (M. tuberculosis [7]): enhanced bactericidal effect; cytotoxicity in HeLa cells (HeLa cells; 5X MIC concentration): ~ 18% |
| NNC(=O)c1ccncc1 [INH, Isoniazid, reference compound] |  |  |  |  | 1 |  | 1 |  |  |  | 4.53 (≈ 0.621 µg/mL) | 2.27 (≈ 0.311 µg/mL) | 4.53 (≈ 0.621 µg/mL) | 2.27 (≈ 0.311 µg/mL) |  |  |
| CCC(C)c1ccc(OCCSc2nc3ccccc3[nH]2)cc1 (centres unmarked) [compound 6492687, 2-{[2-(4-sec-butylphenoxy)ethyl]thio}-1H-benzimidazole] |  | competitive inhibition | 38.28 (19.14–38.28) μM |  | 4 |  | 1 | cytotoxic | 25 µM and 24 µM | 9.57 (9.57) μM | 9.57 to 19.4 (≈ 3.12 to 6.33 µg/mL) | 32.7 to 38.8 (≈ 10.7 to 12.7 µg/mL) | 38.3 (≈ 12.5 µg/mL) | 38.3 (≈ 12.5 µg/mL) | 0.257–0.263 |  |
| N~1~,N~1~-diethyl-N~4~-{6-methoxy-2-[2-(4-nitrophenyl)vinyl]-4-quinolinyl}-1,4-pentanediamine [compound 5255829] | 9 µM | competitive inhibition | 32.68–38.77 μM and 32.68 (32.68) μM | 32.68 (32.68) μM | 2 | 32.68 (32.68) μM | 1 | not cytotoxic |  | 9.57–19.39 μM and 16.30 (8.15–16.30) μM |  |  |  |  |  |  |
| CO[C@H]1/C=C/O[C@@]2(C)Oc3c(C)c(O)c4c(O)c(c(/C=N/N5CCN(C)CC5)c(O)c4c3C2=O)NC(=O)/C(C)=C\C=C\[C@H](C)[C@H](O)[C@@H](C)[C@@H](O)[C@@H](C)[C@H](OC(C)=O)[C@@H]1C [RIF, Rifampicin, reference compound] |  |  |  |  | 2 |  | 2 |  |  |  | 0.475 (≈ 0.391 µg/mL) | 0.048 (≈ 0.0395 µg/mL) | 0.95 (≈ 0.782 µg/mL) | 0.095 (≈ 0.0782 µg/mL) |  |  |
